≈ marks a conversion by molar mass, not a printed value.
What was measured:
Pseudomonas aeruginosa = assay: Antibacterial activity against Pseudomonas aeruginosa assessed as reduction in microbial growth after 18 hrs by MTT based broth dilution method; type: functional
Bacillus subtilis = assay: Antibacterial activity against Bacillus subtilis assessed as reduction in microbial growth after 18 hrs by MTT based broth dilution method; type: functional
Tetraselmis helgolandica = assay: Anti-phytoplankton activity against Platymonas helgolandica after 96 hrs by fluorometric method; type: functional, organism-based
Shigella dysenteriae = assay: Antibacterial activity against Shigella dysenteriae assessed as reduction in microbial growth after 18 hrs by MTT based broth dilution method; type: functional
Proteus vulgaris = assay: Antibacterial activity against Proteus vulgaris assessed as reduction in microbial growth after 18 hrs by MTT based broth dilution method; type: functional
Priestia megaterium = assay: Antibacterial activity against Bacillus megaterium assessed as reduction in microbial growth after 18 hrs by MTT based broth dilution method; type: functional
Micrococcus luteus = assay: Antibacterial activity against Micrococcus lysodeikticus assessed as reduction in microbial growth after 18 hrs by MTT based broth dilution method; type: functional
Isochrysis galbana = assay: Anti-phytoplankton activity against Isochrysis galbana after 96 hrs by fluorometric method; type: functional, organism-based
Bacillus anthracis = assay: Antibacterial activity against Bacillus anthracis assessed as reduction in microbial growth after 18 hrs by MTT based broth dilution method; type: functional
Vibrio parahaemolyticus = assay: Antibacterial activity against Vibrio parahaemolyticus assessed as reduction in microbial growth after 18 hrs by MTT based broth dilution method; type: functional
Candida albicans = assay: Antifungal activity against Candida albicans assessed as reduction in microbial growth; type: functional
Pestalotiopsis calabae = assay: Antifungal activity against Pestalotia calabae assessed as reduction in microbial growth; type: functional
Escherichia coli = assay: Antibacterial activity against Escherichia coli assessed as reduction in microbial growth after 18 hrs by MTT based broth dilution method; type: functional
Klebsiella aerogenes = assay: Antibacterial activity against Enterobacter aerogenes assessed as reduction in microbial growth after 18 hrs by MTT based broth dilution method; type: functional
Salmonella typhi = assay: Antibacterial activity against Salmonella typhi assessed as reduction in microbial growth after 18 hrs by MTT based broth dilution method; type: functional, Salmonella enterica subsp. enterica serovar Typhi; conditions: Salmonella enterica
[1] = system: Salmonella enterica subsp. enterica serovar Paratyphi B; assay: Antibacterial activity against Salmonella paratyphi B assessed as reduction in microbial growth after 18 hrs by MTT based broth dilution method; type: functional
Colletotrichum truncatum = assay: Antifungal activity against Colletotrichum truncatum assessed as reduction in microbial growth; type: functional
Bacillus cereus = assay: Antibacterial activity against Bacillus cereus assessed as reduction in microbial growth after 18 hrs by MTT based broth dilution method; type: functional
Heterosigma akashiwo = assay: Anti-phytoplankton activity against Heterosigma akashiwo after 96 hrs by fluorometric method; type: functional, organism-based
Nocardia brasiliensis = assay: Antibacterial activity against Nocardia brasiliensis assessed as reduction in microbial growth after 18 hrs by MTT based broth dilution method; type: functional
Kocuria rhizophila = assay: Antibacterial activity against Kocuria rhizophila assessed as reduction in microbial growth after 18 hrs by MTT based broth dilution method; type: functional
[2] = Antifungal activity against Gloeosporium musarum assessed as reduction in microbial growth; type: functional
Karenia mikimotoi = assay: Anti-phytoplankton activity against Karenia mikimotoi after 96 hrs by fluorometric method; type: functional, organism-based

Work on CC1=C(Cc2c(C)cccc2O)C(=O)[C@@](C)(O)[C@@H](O)C1 yielded an MIC (Pseudomonas aeruginosa) of 0.19 µg/mL, an MIC (Bacillus subtilis) of 0.19 µg/mL and an EC50 (Tetraselmis helgolandica) of 12.3 µg/mL (≈ 44.5 µM). It also gave an MIC (Shigella dysenteriae) of 3.13 µg/mL, an MIC (Proteus vulgaris) of 0.39 µg/mL and an MIC (Priestia megaterium) of 0.19 µg/mL. It also gave an MIC (Micrococcus luteus) of 0.39 µg/mL, an EC50 (Isochrysis galbana) of over 50 µg/mL and an MIC (Bacillus anthracis) of 0.19 µg/mL. It also gave an MIC (Vibrio parahaemolyticus) of 0.39 µg/mL, an MIC (Candida albicans) of 1.56 µg/mL and an MIC (Pestalotiopsis calabae) of 1.56 µg/mL. For the same compound, the MIC (Escherichia coli) was 1.56 µg/mL, the MIC (Klebsiella aerogenes) was 0.19 µg/mL and the MIC (Salmonella typhi) was 0.19 µg/mL. The MIC [1] was 0.19 µg/mL, the MIC (Colletotrichum truncatum) was 1.56 µg/mL and the MIC (Bacillus cereus) was 0.19 µg/mL. The EC50 (Heterosigma akashiwo) was over 50 µg/mL, the MIC (Nocardia brasiliensis) was 0.19 µg/mL and the MIC (Kocuria rhizophila) was 0.19 µg/mL. The MIC [2] was 3.13 µg/mL and the EC50 (Karenia mikimotoi) was over 50 µg/mL.

Compound CC1=C(Cc2c(C)cccc2O)C(=O)[C@@](C)(O)[C@H](O)C1 has an MIC (Pseudomonas aeruginosa) of 1.56 µg/mL, an MIC (Bacillus subtilis) of 1.56 µg/mL and an EC50 (Tetraselmis helgolandica) of 16.8 µg/mL (≈ 60.8 µM). The MIC (Shigella dysenteriae) was 6.25 µg/mL, the MIC (Proteus vulgaris) was 1.56 µg/mL and the MIC (Priestia megaterium) was 0.19 µg/mL. For the same compound, the MIC (Micrococcus luteus) was 0.78 µg/mL, the EC50 (Isochrysis galbana) was over 50 µg/mL and the MIC (Bacillus anthracis) was 0.39 µg/mL. For the same compound, the MIC (Vibrio parahaemolyticus) was 3.13 µg/mL, the MIC (Candida albicans) was 3.13 µg/mL and the MIC (Pestalotiopsis calabae) was 3.13 µg/mL. It also gave an MIC (Escherichia coli) of 3.13 µg/mL, an MIC (Klebsiella aerogenes) of 1.56 µg/mL and an MIC (Salmonella typhi) of 0.19 µg/mL. For the same compound, the MIC [1] was 0.39 µg/mL, the MIC (Colletotrichum truncatum) was 3.13 µg/mL and the MIC (Bacillus cereus) was 0.39 µg/mL. For the same compound, the EC50 (Heterosigma akashiwo) was over 50 µg/mL, the MIC (Nocardia brasiliensis) was 0.39 µg/mL and the MIC (Kocuria rhizophila) was 0.39 µg/mL. It also gave an MIC [2] of 3.13 µg/mL and an EC50 (Karenia mikimotoi) of over 50 µg/mL.

O=C(O)c1cn(C2CC2)c2cc(N3CCNCC3)c(F)cc2c1=O [CIPROFLOXACIN] showed an MIC (Pseudomonas aeruginosa) of 0.19 µg/mL, an MIC (Bacillus subtilis) of 0.09 µg/mL and an MIC (Shigella dysenteriae) of 0.19 µg/mL. It also gave an MIC (Proteus vulgaris) of 0.09 µg/mL, an MIC (Priestia megaterium) of 0.19 µg/mL and an MIC (Micrococcus luteus) of 0.19 µg/mL. The MIC (Bacillus anthracis) was 0.19 µg/mL, the MIC (Vibrio parahaemolyticus) was 0.19 µg/mL and the MIC (Klebsiella aerogenes) was 0.05 µg/mL. For the same compound, the MIC (Salmonella typhi) was 0.09 µg/mL, the MIC [1] was 0.05 µg/mL and the MIC (Bacillus cereus) was 0.09 µg/mL. The MIC (Nocardia brasiliensis) was 0.19 µg/mL and the MIC (Kocuria rhizophila) was 0.19 µg/mL.

Work on CC(=O)N1CCN(c2ccc(OCC3COC(Cn4ccnc4)(c4ccc(Cl)cc4Cl)O3)cc2)CC1 (centres undefined) [KETOCONAZOLE] yielded an MIC (Candida albicans) of 0.78 µg/mL, an MIC (Pestalotiopsis calabae) of 0.78 µg/mL and an MIC (Colletotrichum truncatum) of 0.19 µg/mL. For the same compound, the MIC [2] was 0.39 µg/mL.
